# In patent publication US20230293629A1, “METHODS FOR ATTENUATING RELEASE OF INFLAMMATORY MEDIATORS AND PEPTIDES USEFUL THEREIN” (BIOMARCK PHARMACEUTICALS LTD., priority 2006, published 2023):
# Where a SMILES comes first, the peptide text is derived from it. Where no end group is shown, it is not given here. The star is where a group is joined. Myristoyl = CCCCCCCCCCCCCC(=O)*
# Key:
# [1] = tested on: isolated human neutrophils; test: MPO secretion from isolated human neutrophils stimulated with PMA + 8-Br-cGMP (FIG. 7, 8, 9); type: cell-based; details: for MPO secretion: FIG. 7, 100 nM PMA and 10 μM 8-Br-cGMP
# HL-60 clone 15 cells = test: PMA-stimulated EPO release from HL-60 clone 15 cells; type: cell-based, human; details: for % Inhibition EPO: 50 μM test peptide, two hour incubation with 100 nM PMA, HL-60 clone 15 cells
# Protocol: (§1) Three types of human leukocyte cell lines, specifically the promyelocytic cell line HL-60 clone 15, the monocytic cell line U937, and the lymphocyte natural killer cell line NK-92 were purchased from American Type Culture Collection (ATCC; Rockville, MD). HL-60 clone 15 cells (ATCC CRL-1964) were maintained in medium consisting of RPMI 1640 with L-glutamine supplemented with 10% heat-inactivated fetal bovine serum (Gibco; Invitrogen Co., Carlsbad, CA), 50 IU/ml penicillin, 50 μg/mL streptomycin, and 25 mM HEPES buffer, pH 7.8, at 37° C. in an atmosphere containing 5% CO2. Final differentiation to an eosinophil-like phenotype was initiated by culturing cells at 5×10^5 cells/ml in the above medium containing 0.5 mM butyric acid (Sigma-Aldrich Co.) for 5 days as previously described (Tiffany H L, Li F, Rosenberg H F. Hyperglycosylation of eosinophil ribonucleases in a promyelocytic leukemia cell line and in differentiated peripheral blood progenitor cells. J Leukoc Biol 1995; 58:49-54; Tiffany H L, Alkhatib G, Combadiere C, Berger E A, Murphy P M. CC chemokine receptors 1 and 3 are differentially regulated by IL-5 during maturation of eosinophilic HL-60 cells. J Immunol 1998; 160:1385-1392). U937 cells (ATCC CRL-1593.2) were grown at 37° C. in an atmosphere of 5% CO2 in complete medium consisting of RPMI 1640 with L-glutamine supplemented with 10% FBS, 50 IU/ml penicillin, and 50 μg/mL streptomycin. NK-92 cells (ATCC CRL-2407) were maintained in alpha-MEM medium (Sigma-Aldrich Co.) supplemented with 20% FBS, 100 U/ml of interleukin-2 (IL-2) (Chemicon International, Inc., Temecula, CA), 5×10^−5 M of 2-mercaptoethanol, 50 IU/mL penicillin, and 50 μg/ml streptomycin at 37° C. in an atmosphere containing 5% CO2. Cell morphology was judged by assessment of Wright-Giemsa-stained cells. Viability of cells harvested for experiments was assessed by trypan blue exclusion and populations of cells with viability >95% were used.
# (§2) HL-60 clone 15, U937, and NK-92 cells were washed and resuspended at 2.5×10^6 cells/ml in phenol red-free RPMI-1640 (Cellgro; Mediatech, Inc.) for all degranulation assays. Aliquots of cells in 15 ml tubes were preincubated with indicated concentrations of MANS, RNS, or a test peptide for 10 min at 37° C. The cells then were stimulated with PMA for up to 2 hr. A control reference (PMA control reference) was established for each cell type using HL-60 clone 15, U937, and NK-92 cells, respectively, which were washed and resuspended at 2.5×10^6 cells/ml in phenol red-free RPMI-1640 and stimulated with PMA but in the absence of MANS, RNS, or a test peptide for the same time periods. The reaction was terminated by placing tubes on ice and centrifuging cells at 400 g for 5 min at 4° C.
# (§3) For measurements of released MPO from neutrophils and released lysozyme from U937 cells, we were able to quantify secretion by using as standards human MPO and egg white […], respectively. For released EPO from HL-60 clone 15 cells and for released granzyme from NK-92 cells, no standards were available to use for quantification. […] To measure intracellular EPO in HL-60 clone 15 cells and intracellular granzyme in NK-92 cells, appropriate aliquots of 0.1% triton X-100-lysed cells were taken for quantification of intracellular granule proteins as described below. All treatments were expressed as percentage of control to minimize variability between cultures.
# EPO activity released by HL-60 clone 15 cells was assayed using TMB according to a previously established technique (Lacy P, Mahmudi-Azer S, Bablitz B, Hagen S C, Velazquez J R, Man S F, Moqbel R. Rapid mobilization of intracellularly stored RANTES in response to interferon-gamma in human eosinophils. Blood 1999; 94:23-32). Thus, 100 μL of TMB substrate solution was added to 50 μL=microliters) of sample in a 96-well microplate and incubated at room temperature for 15 min (min=minutes). […]
# U937 cells = test: PMA-stimulated lysozyme secretion by U937 cells; type: cell-based, human; details: for % Inhibition Lysozyme: 50 μM test peptide, two hour incubation with 100 nM PMA, U937 cells
# Protocol: as §1, §2, §3
# Lysozyme secreted by U937 cells was measured using a spectrophotometric assay as described previously (Balboa M A, Saez Y, Balsinde J. Calcium-independent phospholipase A2 is required for lysozyme secretion in U937 promonocytes. J Immunol 2003; 170:5276-5280) with slight modification. Thus, 100 μL of sample was mixed with 100 μL of a Micrococcus lysodeikticus (Sigma-Aldrich Co.) suspension (0.3 mg/ml in 0.1 M sodium phosphate buffer, pH 7.0) in a 96-well microplate. The decrease in absorbance at 450 nm was measured at room temperature. […]
# [2] = Qualitative solubility of peptides in 0.5 N saline, pH 6.5
# [3] = any of the time points or concentrations tested
molecule,measurement,setting,value
CCCCCCCCCCCCCC(=O)NCC(=O)N[C@@H](C)C(=O)N[C@@H](CCC(N)=O)C(=O)N[C@@H](Cc1ccccc1)C(=O)N[C@@H](CO)C(=O)N[C@@H](CCCCN)C(=O)N[C@H](C(=O)N[C@@H](C)C(=O)N[C@@H](C)C(=O)N[C@@H](CCCCN)C(=O)NCC(=O)N[C@@H](CCC(=O)O)C(=O)N[C@@H](C)C(=O)N[C@@H](C)C(=O)N[C@@H](C)C(=O)N[C@@H](CCC(=O)O)C(=O)N[C@@H](CCCNC(=N)N)C(=O)N1CCC[C@H]1C(=O)NCC(=O)N[C@@H](CCC(=O)O)C(=O)N[C@@H](C)C(=O)N[C@@H](C)C(=O)N[C@H](C(=O)N[C@@H](C)C(=O)O)C(C)C)[C@@H](C)O [MANS] (Myristoyl-GAQFSKTAAKGEAAAERPGEAAVA-OH; C-terminus assumed),MPO secretion,[1]; 10 μM peptide,slight decrease
same,MPO secretion,[1]; 100 μM peptide,decreased secretion of MPO to control levels
same,reduction in EPO activity relative to the PMA control reference,"HL-60 clone 15 cells; 10 μM, 1 hour",about 15%
same,EPO activity relative to control as 100%,"HL-60 clone 15 cells; 10 μM, 1 hour, PMA control reference about 110%",about 95%
same,reduction in EPO activity relative to the PMA control reference,"HL-60 clone 15 cells; 10 μM, 2 hour",about 10%
same,EPO activity relative to control as 100%,"HL-60 clone 15 cells; 10 μM, 2 hour, PMA control reference about 145%",about 130%
same,% Inhibition EPO,HL-60 clone 15 cells,46.1%
same,reduction in EPO activity relative to the PMA control reference,"HL-60 clone 15 cells; 50 μM, 1 hour",about 30%
same,EPO activity relative to control as 100%,"HL-60 clone 15 cells; 50 μM, 1 hour, PMA control reference about 110%",about 78%
same,reduction in EPO activity relative to the PMA control reference,"HL-60 clone 15 cells; 50 μM, 2 hour",about 50%
same,EPO activity relative to control as 100%,"HL-60 clone 15 cells; 50 μM, 2 hour, PMA control reference about 145%",about 70%
same,reduction in EPO activity relative to the PMA control reference,"HL-60 clone 15 cells; 100 μM, 1 hour",about 40%
same,EPO activity relative to control as 100%,"HL-60 clone 15 cells; 100 μM, 1 hour, PMA control reference about 110%",about 65%
same,reduction in EPO activity relative to the PMA control reference,"HL-60 clone 15 cells; 100 μM, 2 hour",about 50%
same,EPO activity relative to control as 100%,"HL-60 clone 15 cells; 100 μM, 2 hour, PMA control reference about 145%",about 72%
same,reduction in lysozyme secretion relative to the PMA control reference,"U937 cells; 10 μM, 1 hour",about 20%
same,lysozyme secretion relative to control as 100%,"U937 cells; 10 μM, 1 hour, PMA control reference about 210%",about 170%
same,reduction in lysozyme secretion relative to the PMA control reference,"U937 cells; 10 μM, 2 hour",about 20%
same,lysozyme secretion relative to control as 100%,"U937 cells; 10 μM, 2 hour, PMA control reference about 240%",about 195%
same,% Inhibition Lysozyme,U937 cells,40.8%
same,reduction in lysozyme secretion relative to the PMA control reference,"U937 cells; 50 μM, 1 hour",about 20%
same,lysozyme secretion relative to control as 100%,"U937 cells; 50 μM, 1 hour, PMA control reference about 210%",about 170%
same,reduction in lysozyme secretion relative to the PMA control reference,"U937 cells; 50 μM, 2 hour",about 25%
same,lysozyme secretion relative to control as 100%,"U937 cells; 50 μM, 2 hour, PMA control reference about 240%",about 185%
same,reduction in lysozyme secretion relative to the PMA control reference,"U937 cells; 100 μM, 1 hour",about 45%
same,lysozyme secretion relative to control as 100%,"U937 cells; 100 μM, 1 hour, PMA control reference about 210%",about 115%
same,reduction in lysozyme secretion relative to the PMA control reference,"U937 cells; 100 μM, 2 hour",about 40%
same,lysozyme secretion relative to control as 100%,"U937 cells; 100 μM, 2 hour, PMA control reference about 240%",about 140%
"CCCCCCCCCCCCCC(=O)O[C@@H]1[C@@H](C)[C@@]2(O)[C@@H](C=C(CO)C[C@]3(O)C(=O)C(C)=C[C@@H]23)[C@@H]2C(C)(C)[C@]12OC(C)=O [PMA, phorbol 12-myristate 13-acetate]",MPO secretion from LPS-stimulated human neutrophils,"[1]; FIG. 8, PMA alone, enhanced concentration-dependently by co-stimulation with 8-Br-cGMP",small increase
"CCCCCCCCCCCCCC(=O)NCC(=O)N[C@H](C(=O)N[C@@H](C)C(=O)N1CCC[C@H]1C(=O)N[C@@H](C)C(=O)N[C@@H](C)C(=O)N[C@@H](CCC(=O)O)C(=O)NCC(=O)N[C@@H](C)C(=O)NCC(=O)N[C@@H](C)C(=O)N[C@@H](CCC(=O)O)C(=O)N[C@H](C(=O)N[C@@H](CCCCN)C(=O)N[C@@H](CCCNC(=N)N)C(=O)N[C@@H](C)C(=O)N[C@@H](CO)C(=O)N[C@@H](C)C(=O)N[C@@H](CCC(=O)O)C(=O)N[C@@H](C)C(=O)N[C@@H](CCCCN)C(=O)N[C@@H](CCC(N)=O)C(=O)N[C@@H](C)C(=O)N[C@@H](Cc1ccccc1)C(=O)O)C(C)C)[C@@H](C)O [RNS, reference compound] (Myristoyl-GTAPAAEGAGAEVKRASAEAKQAF-OH; C-terminus assumed)",MPO secretion,[1]; 10 or 100 μM peptide,no effect
same,% Inhibition EPO,HL-60 clone 15 cells,0%
same,effect on PMA-enhanced EPO release,HL-60 clone 15 cells; [3],did not affect
same,solubility,[2],> 15 mg/mL
same,% Inhibition Lysozyme,U937 cells,0%
same,effect on PMA-enhanced lysozyme secretion,U937 cells; [3],did not affect
Ac-GAQFSKTAAK [Ac-GAQFSKTAAK],% Inhibition EPO,HL-60 clone 15 cells,35.7%
same,solubility,[2],> 100 mg/mL
same,% Inhibition Lysozyme,U937 cells,41.2%
Ac-GAQFSKTAAKGEAAAERPGEAAVA,% Inhibition EPO,HL-60 clone 15 cells,33.7%
same,solubility,[2],> 250 mg/mL
same,% Inhibition Lysozyme,U937 cells,39.8%
